Ends that are not written are not given here.
Experiments:
[1] = system: HT1080 cells (human fibrosarcoma cell line); experiment: Boyden chamber migration, HT1080 cells; type: cell-based
Procedure: (§1) Human umbilical vein endothelial cells (HUVECs) were isolated from freshly delivered cords according to Jaffe et al. (J. Clin. Invest. 52: 2745, 1973) and grown on Nunclon dishes (Nunc, Denmark) in RPMI 1640 (Life Technologies, Gaithersburg, Md.) supplemented with 20% bovine calf serum (Hyclone Laboratories, Logan Utah), 100 U/ml penicillin/streptomycin (Life Technologies, Gaithersburg, Md.), 50 μg/ml gentamycin (Life Technologies, Gaithersburg, Md.), 2.7 μg/ml amphotericin B (fungizone)(Life Technologies, Gaithersburg, Md.), 5 U/ml sodium heparin (Fisher Scientific, Pittsburgh, Pa.) and 200 μg/ml endothelial cell growth supplement (ECGS) (Collaborative Research, Bedford, Mass.). Cells between passage 3 and 5 were used for all experiments. Human coronary artery endothelial cells (HCAECs) were grown on Nunclon dishes in the HUVEC media. Foreskin fibroblasts (Ffs) were grown in DMEM supplemented with 10% fetal bovine serum (Hyclone) on Falcon (Becton Dickinson, N.J.) dishes. HT1080 cells (human fibrosarcoma cell line) were grown in Falcon flasks in DMEM supplemented with 10% fetal bovine serum. Neutrophils were freshly isolated from buffy coats as previously reported (Kibbey et al., J. Cell Phys. 160:185, 1994). Human aortic smooth muscle cells (AOSMCs) were grown in smooth muscle cell media (Clonetics, San Diego, Calif.) on Nunclon dishes.
(§2) Several cell types were tested to determine if the migratory stimulation observed with Tα1 was specific. […] HUVEC migration assays were carried out in Boyden chambers using 12 ,m pore PVP free filters coated with either a 0.1 mg/ml or 0.05 mg/ml solution of collagen IV as previously reported (Malinda et al., FASEB J. 11:474, 1997). Each condition was assayed in triplicate wells at least three times unless indicated. HCAECs, AOSMCs, FFs, HT1080 cells and neutrophils were cultured or isolated and assayed for migration as previously reported (Malinda et al., FASEB J. 11:474, 1997).

[2] = system: Monocytes; experiment: Boyden chamber migration, monocytes; type: cell-based; conditions: for average number of cells that migrated ± SEM: Monocytes
Procedure: [The procedure below names another cell line; the source lists this cell line under the same test.] as §2

[3] = system: Neutrophils; experiment: Boyden chamber migration, neutrophils; type: cell-based; conditions: for average number of cells that migrated ± SEM: Neutrophils
Procedure: as §1, §2

[4] = system: rats; experiment: Full thickness punch biopsy wound healing; type: in vivo; conditions: for reepithelization of the wound / collagen production (Masson's trichrome) / histology of dermis near dermal and epidermal junction: 8 day punch wounds; for wound healing compared to untreated wounds: rats
Procedure: Six full thickness 8 mm punch biopsy wounds were made on the dorsal surface of rats as previously reported (Bhartiya et al., J. Cell. Physiol. 150:312, 1992; Sihhu et al., J. Cell. Physiol. 169:108, 1996) and Tα1 was given topically at the time of wounding (5 μg in 50 μl) and again after 48 hr. Controls for the topical treatment received identical amounts of saline at the time of wounding and at 48 hr. Three rats in each group also received intraperitoneal injections at the time of wounding (60 μg in 300 μl) and again every other day. Controls for these animals received identical amounts of saline i.p. on the same injection schedule. At days 8 and 9 post-wounding, tissue was collected and fixed in 10% buffered formalin (i.p. n=18 samples; topical n=9 samples). The samples were sectioned and stained with H&E and Masson's Trichrome (American Histolabs, Gaithersburg, Md.).

[5] = system: HUVEC; experiment: HUVEC migration in Boyden chamber assays; type: cell-based, human
Procedure: as §2

[6] = system: C57Bl/6N female mice; experiment: Subcutaneous Matrigel plug assay; type: in vivo
Procedure: Since Tα1 enhanced HUVEC migration in vitro, experiments were performed to determine if Tα1 promoted cell migration and vessel formation in vivo. Endothelial cells invade and form vessels in Matrigel plugs containing angiogenic factors (Kibbey et al., J. Cell Phys. 160:185, 1994; Passaniti et al., Lab. Invest. 67: 519, 1992). […] Three random fields were collected and analyzed per plug in each of three experiments. […] Cells migrate into the plug from the area closest to the skin forming vessels (FIG. 5). Plugs containing Tα1 (FIGS. 5C and 5D) show many more cells than in the Matrigel alone (FIG. 5A). Cell morphology was similar to those in plugs containing 10 ng/ml of the positive control ECGS (FIG. 5B).

[7] = system: human aortic smooth muscle cells; experiment: Boyden chamber migration, aortic smooth muscle cells; type: cell-based; conditions: for average number of cells that migrated ± SEM: AOSMC
Procedure: as §1, §2

[8] = system: foreskin fibroblasts; experiment: Boyden chamber migration, foreskin fibroblasts; type: cell-based; conditions: for average number of cells that migrated ± SEM: FF
Procedure: as §1, §2

[9] = system: human coronary artery endothelial cells; experiment: Boyden chamber migration, coronary artery endothelial cells; type: cell-based; conditions: for average number of cells that migrated ± SEM: HCAEC
Procedure: as §1, §2

[10] = system: HUVECs; experiment: Tube formation assay on Matrigel; type: cell-based, human
Procedure: Migration and differentiation during angiogenesis can be studied in vitro using Matrigel, a basement membrane matrix on which HUVECs undergo capillary-like tube formation (Grant et al., J. Cell. Physiol. 153: 614, 1992; Kubota et al., J. Cell Biol. 107: 1589, 1988). The tube formation assay was performed according to Grant et al. (J. Cell. Physiol. 153:614, 1992) with the following modifications. Twenty-four well Nunclon plates were coated with 320 μl of Matrigel (10 mg/ml) and incubated at 37° C. for 30 min to promote gelling. 30,000 HUVECs were resuspended in growth media and added to each well with 1, 10, 100 and 1000 ng of synthetic Tα1, 20 and 200 μg/ml ECGS (a bovine brain extract that contains aFGF and bFGF and acts as a positive control) or media alone. The final serum concentrations were 10% or 5%. After 18 h, plates were fixed with Diff-Quik (Baxter Healthcare Corporation, McGraw Park, Ill.) and the length of the tubes was measured using an Olympus CK2 microscope with a 2× objective connected to a Javelin CCTV camera with a 3.3× coupler and NIH Image 1.57 software. Three random measurements of each of four wells at each culture condition were measured. Each experiment was repeated at least three times.

[11] = system: HUVEC; experiment: In vitro "scratch" wound closure assay; type: cell-based, human; conditions: media alone 1%
Procedure: During angiogenesis the cells may be presented with a constant level of Tα1. The "scratch" wound closure assay was used to assess the potential effects of constant doses of Tα1 on cell migration. Confluent monolayers were "scratch" wounded using the tip of a universal blue pipette tip and rinsed with PBS. Tα1 (1, 10, 100, and 1000 ng/ml) or ECGS (200 μg/ml) was added to the wells in fresh media lacking ECGS but containing 10 mM thymidine to inhibit cell proliferation (Malinda et al., FASEB J. 11: 474, 1997). Antibody inhibition experiments were carried out as described above by wounding the cell monolayer and then adding either anti-Tα1 polyclonal antibody (1/25, 1/50 dilution) or pre-immune serum (1/25 dilution), or fresh media to the plate.

laminin [LN, reference compound]
average number of cells that migrated ± SEM ([1]; HT1080, positive control 1 ug/ml): 661.2 ± 37
average number of cells that migrated ± SEM ([1]; HT1080, positive control 5 ug/ml): 1136 ± 70.3

FMLP [reference compound]
average number of cells that migrated ± SEM ([2]; positive control 10^-7 M): 74 ± 2.1
average number of cells that migrated ± SEM ([3]; positive control 10^-7 M): 1404.7 ± 58.2

thymosin α1 (SDAAVDTSSEITTKDLKEKKEVVEEAEN; not fully specified; ends and bridges not checked; UniProt P06454 2-29, looked up) [Tα1, 28 amino acid peptide which results from the cleavage of the N-terminal region of prothymosin α1]
reepithelization of the wound ([4]; intraperitoneal on alternate days 60 μg/300 μl): Complete reepithelization
wound healing compared to untreated wounds ([4]; intraperitoneal, 60 μg in 300 μl every other day): significantly accelerated wound healing
collagen production (Masson's trichrome) ([4]; intraperitoneal): enhanced collagen production
histology of dermis near dermal and epidermal junction ([4]; intraperitoneal): capillary ingrowth in granulation tissue and hypercellular dermis
reepithelization of the wound ([4]; topical 5 μg/50 μl): complete reepithelization of the wound with 2-3 layers of thick epidermis
wound healing compared to untreated wounds ([4]; topical, 5 μg in 50 μl at wounding and after 48 hr): significantly accelerated wound healing
collagen production (Masson's trichrome) ([4]; topical): enhanced collagen production
histology of dermis near dermal and epidermal junction ([4]; topical): capillary ingrowth in granulation tissue and hypercellular dermis
increase in HUVEC migration ([5]; Tα1 in the lower wells, filters coated with collagen IV): 3-6 fold
checkerboard assay, chemoattraction vs chemokinesis ([5]; increasing Tα1 in lower well vs in upper and lower wells): More cells migrated along the concentration gradient of Tα1 in the lower well
average number of cells that migrated ± SEM ([1]; HT1080, Thymosin α1 1 ng/ml): 2.4 ± 0.8
average number of cells that migrated ± SEM ([1]; HT1080, Thymosin α1 10 ng/ml): 1.8 ± 0.4
average number of cells that migrated ± SEM ([1]; HT1080, Thymosin α1 100 ng/ml): 1.3 ± 0.7
average number of cells that migrated ± SEM ([1]; HT1080, Thymosin α1 1000 ng/ml): 0.9 ± 0.4
migration toward Tα1 ([1]; HT1080 fibrosarcoma cells): did not demonstrate any significant migration
cell migration into plugs ([6]; 1 μg/ml and 500 μg/ml): a decrease in migration was observed
cell migration and angiogenesis in vivo vs Matrigel alone ([6]; 5 μg/ml of Tα1): always significantly higher than Matrigel alone
average number of cells that migrated ± SEM ([7]; Thymosin α1 1 ng/ml): 1 ± 0.3
average number of cells that migrated ± SEM ([7]; Thymosin α1 10 ng/ml): 1 ± 0.4
average number of cells that migrated ± SEM ([7]; Thymosin α1 100 ng/ml): 0.5 ± 0.5
average number of cells that migrated ± SEM ([7]; Thymosin α1 1000 ng/ml): 1 ± 0.4
migration toward Tα1 ([7]; human aortic smooth muscle cells): did not demonstrate any significant migration
average number of cells that migrated ± SEM ([8]; Thymosin α1 1 ng/ml): 5 ± 0.4
average number of cells that migrated ± SEM ([8]; Thymosin α1 10 ng/ml): 5 ± 0.4
average number of cells that migrated ± SEM ([8]; Thymosin α1 100 ng/ml): 4.8 ± 0.7
average number of cells that migrated ± SEM ([8]; Thymosin α1 1000 ng/ml): 5.2 ± 0.5
migration toward Tα1 ([8]; Foreskin fibroblasts): did not demonstrate any significant migration
Monocyte migration ([2]; 100 ng/ml): appeared to be inhibited
Monocyte migration ([2]; 1000 ng/ml of Tα1): increased
average number of cells that migrated ± SEM ([2]; Thymosin α1 100 ng/ml): 20 ± 5.4
average number of cells that migrated ± SEM ([2]; Thymosin α1 1000 ng/ml): 80 ± 7.6
increase in migration over media alone ([9]; 1000 ng of Tα1): 2 fold
migration ([9]; 1-100 ng doses): Significant migration
average number of cells that migrated ± SEM ([9]; Thymosin α1 1 ng/ml): 14 ± 0.3
average number of cells that migrated ± SEM ([9]; Thymosin α1 10 ng/ml): 16 ± 0.5
average number of cells that migrated ± SEM ([9]; Thymosin α1 100 ng/ml): 18 ± 0.4
average number of cells that migrated ± SEM ([9]; Thymosin α1 1000 ng/ml): 21 ± 0.4
tube formation ([10]; 1 or 10 ng/ml Tα1, 5% serum): did not form tubes
tube formation ([10]; 100 and 1000 ng/ml Tα1, 5% serum): formed highly organized tubes
tube formation vs control cells ([10]; 100 or 1000 ng/ml Tα1, 10% serum): formed more tubes than control cells
average length of tubes ([10]; 100 or 1000 ng/ml Tα1, 10% serum, 18 h, media alone 208 μm): 316-324 μm
wound closure ([11]; 100 ng/ml Tα1, 2 h): 7%
wound closure ([11]; 1000 ng/ml Tα1, 2 h after wounding): 14%
average number of cells that migrated ± SEM ([3]; Thymosin α1 1 ng/ml): 138.7
average number of cells that migrated ± SEM ([3]; Thymosin α1 10 ng/ml): 138.7 ± 20
average number of cells that migrated ± SEM ([3]; Thymosin α1 100 ng/ml): 149.3 ± 13.5
average number of cells that migrated ± SEM ([3]; Thymosin α1 1000 ng/ml): 149.3 ± 27
migration toward Tα1 ([3]; neutrophils): did not demonstrate any significant migration

basic fibroblast growth factor [bFGF, reference compound]
average number of cells that migrated ± SEM ([8]; positive control 10 ng/ml): 12.3 ± 0.3

B1: PDGF-BB: platelet derived growth factor B form, positive control (protein, UniProt P01127 82-190, looked up)
Platelet-derived growth …: SLGSLTIAEPAMIAECKTRTEVFEISRRLIDRTNANFLVWPPCVEVQRCSGCCNNRNVQCRPTQVQLRPVQVRKIEIVRKKPIFKKATVTLEDHLACKCETVAAARPVT
average number of cells that migrated ± SEM ([7]; positive control 10 ng/ml): 36 ± 4.5
